Laboratory results taken from ChEMBL document CHEMBL6071165, “Design, synthesis and biological evaluation of plant-derived miliusol derivatives achieve TNBC profound regression in vivo” (Eur J Med Chem, 2024).

What was measured:
MDA-MB-231 [1] = experiment: Antiproliferative activity against human MDA-MB-231 cells assessed as inhibition of cell proliferation incubated for 48 hrs by MTT assay; type: functional, cell-based; details: MDA-MB-231, 48 h
MDA-MB-231 [2] = experiment: Antiproliferative activity against human MDA-MB-231 cells assessed as inhibition of cell proliferation incubated for 24 hrs by MTT assay; type: functional, cell-based; details: MDA-MB-231, 24 h
BT-549 [3] = experiment: Antiproliferative activity against human BT-549 cells assessed as inhibition of cell proliferation incubated for 24 hrs by MTT assay; type: functional, cell-based; details: BT-549, 24 h
BT-549 [4] = experiment: Antiproliferative activity against human BT-549 cells assessed as inhibition of cell proliferation incubated for 48 hrs by MTT assay; type: functional, cell-based; details: BT-549, 48 h
BT-549 [5] = experiment: Potency index, ratio of miliusol IC50 to test compound IC50 for antiproliferative activity against human BT-549 cells assessed as inhibition of cell proliferation incubated for 48 hrs by MTT assay; type: functional
[6] = (§1) Selectivity ratio of IC50 for antiproliferative activity against human MCF-10A cells assessed as inhibition of cell proliferation incubated for 24 hrs by MTT assay to IC50 for antiproliferative activity against human BT-549 cells assessed as inhibition of cell proliferation incubated for 24 hrs by MTT assay; type: toxicity, cell-based; details: MCF-10A cells versus BT-549 cells, read-out: Ratio IC50
[7] = as §1, with “MDA-MB-231” for “BT-549”; type: cell-based; details: MCF-10A cells versus MDA-MB-231 cells, read-out: Ratio IC50
[8] = Antiproliferative activity against human MCF-10A cells assessed as inhibition of cell proliferation incubated for 24 hrs by MTT assay; type: toxicity, cell-based
[9] = Antiproliferative activity against human MCF-10A cells assessed as inhibition of cell proliferation incubated for 48 hrs by MTT assay; type: toxicity, cell-based
[10] = as §1, with “48” for “24”, “MDA-MB-231” for “BT-549”; type: cell-based; details: MCF-10A cells versus MDA-MB-231 cells, read-out: Ratio IC50
[11] = as §1, with “48” for “24”; type: toxicity, cell-based; details: MCF-10A cells versus BT-549 cells, read-out: Ratio IC50
[12] = Potency index, ratio of miliusol IC50 to test compound IC50 for antiproliferative activity against human MDA-MB-231 cells assessed as inhibition of cell proliferation incubated for 48 hrs by MTT assay; type: functional

SMILES	IC50 (MDA-MB-231 [1]) [µM]	IC50 (MDA-MB-231 [2]) [µM]	IC50 (BT-549 [3]) [µM]	IC50 (BT-549 [4]) [µM]	Ratio IC50 (BT-549 [5])	selectivity ratio at 24 h [6]	selectivity ratio at 24 h [7]	IC50 at 24 h [8] [µM]	IC50 at 48 h [9] [µM]	selectivity ratio at 48 h [10]	selectivity ratio at 48 h [11]	Ratio IC50 [12]
CC(C)=CCC/C(C)=C/[C@H]1OC(=O)C[C@]12C[C@H](OC(=O)Cc1ccc3c(c1)OCO3)C=CC2=O	2.77	2.23	6.81	3.38								
CC(=O)Nc1ccc(CC(=O)O[C@@H]2C=CC(=O)[C@@]3(CC(=O)O[C@@H]3/C=C(\C)CCC=C(C)C)C2)cc1	2.16	4.73	7.01	4.19								
CC(C)=CCC/C(C)=C/[C@H]1OC(=O)C[C@]12C[C@H](O)C=CC2=O	4.68	4.19	4.85	3.04								
COC(=O)C[C@@]1([C@H](O)/C=C(\C)CCC=C(C)C)C[C@H](O)C=CC1=O [(+)-MILIUSANE XVIII]	4.23	8.14	4.21	2.26								
CC(C)=CCC/C(C)=C/[C@H]1OC(=O)C[C@]12C[C@H](OC(=O)Cc1ccc(F)cc1Cl)C=CC2=O	5.07	3.07	4.93	2.14								
CC(C)=CCC/C(C)=C/[C@H]1OC(=O)C[C@]12C[C@H](OC(=O)Cn1cnc3c(=O)n(C)c(=O)n(C)c31)C=CC2=O	4.42	2.84	5.38	3.47								
CC(C)=CCC/C(C)=C/[C@H]1OC(=O)C[C@]12C[C@H](OC(=O)c1csc(Br)n1)C=CC2=O	2.06	3.43	5.03	0.62	5							
CCC/C=C/C(=O)O[C@@H]1C=CC(=O)[C@@]2(CC(=O)O[C@@H]2/C=C(\C)CCC=C(C)C)C1	12.4	43.6	19.2	11								
CC(C)=CCC/C(C)=C/[C@H]1OC(=O)C[C@]12C[C@H](OC(=O)Cc1ccc(Cl)cc1Cl)C=CC2=O	35.4	19	15.6	8.23								
CC(C)=CCC/C(C)=C/[C@H]1OC(=O)C[C@]12C[C@H](OC(=O)Cn1nnc3ccccc31)C=CC2=O	2.41	6.35	8.31	3.9								
CC(C)=CCC/C(C)=C/[C@H]1OC(=O)C[C@]12C[C@H](OC(=O)Cc1cccs1)C=CC2=O	4.14	4.82	10.1	2.46								
CC(C)=CCC/C(C)=C/[C@H]1OC(=O)C[C@]12C[C@H](OC(=O)CNC(=O)OC(C)(C)C)C=CC2=O	3.2	1.66	2.11	1.14	2.7							1.5
CC(C)=CCC/C(C)=C/[C@H]1OC(=O)C[C@]12C[C@H](OC(=O)Cc1ccc(F)cc1)C=CC2=O	7.48	5	3.03	2.22								

These reach a lower IC50 (MDA-MB-231 [1]). Values come first.

IC50 (MDA-MB-231 [1]) [µM]	IC50 (MDA-MB-231 [2]) [µM]	IC50 (BT-549 [3]) [µM]	IC50 (BT-549 [4]) [µM]	SMILES	Ratio IC50 (BT-549 [5])	selectivity ratio at 24 h [6]	selectivity ratio at 24 h [7]	IC50 at 24 h [8] [µM]	IC50 at 48 h [9] [µM]	selectivity ratio at 48 h [10]	selectivity ratio at 48 h [11]	Ratio IC50 [12]
0.73	2.22	0.39	0.37	CC(C)=CCC/C(C)=C/[C@H]1OC(=O)C[C@]12C[C@H](OC(=O)Cc1ccc(NC(=O)c3ccccc3)cc1)C=CC2=O								
0.46	1.63	2.24	0.64	CC(C)=CCC/C(C)=C/[C@H]1OC(=O)C[C@]12C[C@H](OC(=O)Cc1ccc(NC(=O)c3cccs3)cc1)C=CC2=O								
1.03	0.46	2.03	1.32	CC(C)=CCC/C(C)=C/[C@H]1OC(=O)C[C@]12C[C@H](OC(=O)Cc1ccc(NC(=O)OC(C)(C)C)cc1)C=CC2=O								
0.78	1.3	2.09	1.45	COc1cccc(OC)c1C(=O)Nc1ccc(CC(=O)O[C@@H]2C=CC(=O)[C@@]3(CC(=O)O[C@@H]3/C=C(\C)CCC=C(C)C)C2)cc1								
0.57	1.36	1.75	0.8	CC(C)=CCC/C(C)=C/[C@H]1OC(=O)C[C@]12C[C@H](OC(=O)Cc1ccc(NC(=O)C(C)(C)C)cc1)C=CC2=O								
0.56	1.09	2.3	0.23	CC(C)=CCC/C(C)=C/[C@H]1OC(=O)C[C@]12C[C@H](OC(=O)Cc1ccc(NC(=O)C3CC3)cc1)C=CC2=O								
0.42	0.63	1.04	0.58	CC(C)=CCC/C(C)=C/[C@H]1OC(=O)C[C@]12C[C@H](OC(=O)Cc1ccc(NC(=O)[C@H](Cl)c3ccccc3)cc1)C=CC2=O								
1.34	2.51	10.4	1.22	CC(C)=CCC/C(C)=C/[C@H]1OC(=O)C[C@]12C[C@H](OC(=O)c1cc3ccccc3n1C)C=CC2=O								
1.66	8.85	19.4	2.87	CC(C)=CCC/C(C)=C/[C@H]1OC(=O)C[C@]12C[C@H](OC(=O)/C=C/C=C/c1ccc3c(c1)OCO3)C=CC2=O								
0.54	1.29	1.56	0.67	COc1ccccc1C(=O)Nc1ccc(CC(=O)O[C@@H]2C=CC(=O)[C@@]3(CC(=O)O[C@@H]3/C=C(\C)CCC=C(C)C)C2)cc1								
0.45	1.72	0.28	0.05	CC(=O)O[C@H]1C(=O)[C@@]2(C)[C@H]([C@H](OC(=O)c3ccccc3)[C@]3(O)C[C@H](OC(=O)[C@H](O)[C@@H](NC(=O)c4ccccc4)c4ccccc4)C(C)=C1C3(C)C)[C@]1(OC(C)=O)CO[C@@H]1C[C@@H]2O [PACLITAXEL]		1.18	0.19	0.33	0.09	0.2	1.8	
0.44	0.85	0.99	0.22	CC(C)=CCC/C(C)=C/[C@H]1OC(=O)C[C@]12C[C@H](OC(=O)Cc1ccc(NC(=O)/C=C/c3ccccc3)cc1)C=CC2=O								
0.58	0.96	2.48	0.84	CC(C)=CCC/C(C)=C/[C@H]1OC(=O)C[C@]12C[C@H](OC(=O)Cc1ccc(NC(=O)c3ccccc3Cl)cc1)C=CC2=O								
1.91	9.54	5.33	0.98	COC(=O)C[C@@]12C[C@@H](C=CC1=O)O[C@@H]2/C=C(\C)CCC=C(C)C								
1.34	3.33	3.31	1.55	CC(C)=CCC/C(C)=C/[C@H]1OC(=O)C[C@]12C[C@H](OC(=O)CCC(=O)NCC1CC3C=CC1C3)C=CC2=O (stereo not given in full)								
1.62	4.54	8.71	3.11	C=CC(=O)Nc1ccc(CC(=O)O[C@@H]2C=CC(=O)[C@@]3(CC(=O)O[C@@H]3/C=C(\C)CCC=C(C)C)C2)cc1								
